Assay results from the supplement of paper PMC9663587.

Tested on: MCF10A (GM)
Assay: GRmax, 72 h; higher = less effect;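 further: breast cell lines in 384-well plates, nine doses across a 10^4 range, Dye Drop imaging of viable cells vs DMSO and time-zero plates, GR 0 means no net growth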

Row | Compound | GRmax, 72 h [GR]
1 | CC1(N)CCN(c2cnc(-c3cccc(Cl)c3Cl)c(N)n2)CC1 [SHP099] (max 10 µM) | 0.738
2 | CN(C)C/C=C/C(=O)Nc1ccc(C(=O)Nc2cccc(Nc3ncc(Cl)c(-c4c[nH]c5ccccc45)n3)c2)cc1 [THZ1] (max 1 µM) | -0.267
3 | CN(C)C/C=C/C(=O)Nc1ccc(C(=O)N2CCC[C@@H](Nc3ncc(Cl)c(-c4c[nH]c5ccccc45)n3)C2)cc1 [THZ531] (max 1 µM) | -0.28
4 | CN(C)C/C=C/C(=O)Nc1ccc(C(=O)Nc2cccc(Nc3cc(-c4c[nH]c5ccccc45)ncn3)c2)cc1 [THZ-P1-2] (max 10 µM) | -0.164
5 | C=CC(=O)Nc1ccc(C(=O)Nc2[nH]nc3c2CN(C(=O)N[C@H](CN(C)C)c2ccccc2)C3(C)C)cc1 [YKL-5-124] (max 10 µM) | -0.141
6 | CN1CCN(C(=O)c2ccc3cc(CCNc4ncnc5ccc(C#N)cc45)ccc3c2)CC1 [senexin b] (max 10 µM) | 0.893

Tested on: PDX1206
Assay: GRmax, 72 h; higher = less effect;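 further: breast cell lines in 384-well plates, nine doses across a 10^4 range, Dye Drop imaging of viable cells vs DMSO and time-zero plates, GR 0 means no net growth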

Row | Compound | GRmax, 72 h [GR]
7 | CC1(N)CCN(c2cnc(-c3cccc(Cl)c3Cl)c(N)n2)CC1 [SHP099] (max 10 µM) | 0.7
8 | CN(C)C/C=C/C(=O)Nc1ccc(C(=O)Nc2cccc(Nc3ncc(Cl)c(-c4c[nH]c5ccccc45)n3)c2)cc1 [THZ1] (max 1 µM) | -0.522
9 | CN(C)C/C=C/C(=O)Nc1ccc(C(=O)N2CCC[C@@H](Nc3ncc(Cl)c(-c4c[nH]c5ccccc45)n3)C2)cc1 [THZ531] (max 1 µM) | -0.312
10 | CN(C)C/C=C/C(=O)Nc1ccc(C(=O)Nc2cccc(Nc3cc(-c4c[nH]c5ccccc45)ncn3)c2)cc1 [THZ-P1-2] (max 10 µM) | 0.857
11 | C=CC(=O)Nc1ccc(C(=O)Nc2[nH]nc3c2CN(C(=O)N[C@H](CN(C)C)c2ccccc2)C3(C)C)cc1 [YKL-5-124] (max 10 µM) | -0.513
12 | CN1CCN(C(=O)c2ccc3cc(CCNc4ncnc5ccc(C#N)cc45)ccc3c2)CC1 [senexin b] (max 10 µM) | 0.223
